Data: US4076819A, “Thieno-pyridine derivatives and therapeutic composition containing same” (priority 1975, dated 1978)

Columns and labels:
in vivo = conditions: mouse, mice, intravenous route, calculated by method of Miller and Tainter, read-out: LD50 /24 hrs/kg body weight
[1] = system: ovalbumin-induced systemic edema; assay: Ovalbumin-induced systemic edema method (anti-inflammatory action); assay type: in vivo; conditions: rats, oral 100 mg/kg given 1 h before and simultaneously with ovalbumin
Experimental: (b) Ovalbumin-induced systemic edema method
Rats are administered a simultaneous intraperitoneal injection of 1 ml ovalbumin and 0.5 ml of a 1% aqueous Evans Blue solution. The animals of the treated group are additionally administered orally 100 mg/kg of the test derivative, one hour prior to ovalbumin administration and simultaneously with said ovalbumin administration. The intensity of the phenomenon thus induced is scored according to a scale from 1 to 5, according to the progress of the inflammatory syndrome. The determinations are effected after 2 hours and after 3 hours. Thus are determined the mean intensity of the edema and the percent decrease of the edema reaction.

[2] = system: carrageenin-induced edema; assay: Localized carrageenin-induced edema method (anti-inflammatory action); assay type: in vivo; conditions: rats, oral 100 mg/kg given 1 h before, simultaneously with, and 1 h and 2.5 h after carrageenin
Experimental: (a) Localized carrageenin-induced edema method
A 1% carrageenin solution (1 ml) is injected in the metatarsal flexor muscles of the right hind limb of rats at time 0. The animals of the treated group are additionally administered orally 100 mg/kg of the test derivative, respectively 1 hour prior to and then simultaneously with the phlogogenic agent, and then one hour and 2.5 hours thereafter. The percent anti-inflammatory activity, as a function of time, is determined by measurements effected with a ROCH micrometer at times 0, 1 hour, 2 hours, 3 hours and 5 hours after carrageenin administration.

blood plate aggregation = assay: Inhibiting activity on blood plate aggregation (adenosine diphosphate-induced, turbidimetric assay on plasma of treated rats); assay type: in vivo; conditions: Rattus norvegicus, rats administered 100 mg/kg, read-out: percent inhibition on blood plate aggregation
Experimental: 2. Inhibiting activity on blood plate aggregation
Rat plasma, prepared to contain 600,000±20,000 blood platelets per mm^3 is normally cloudy. Addition of adenosine diphosphate induces blood plate aggregation and, thus, an increase of the light transmission, a phenomenon readily measurable with a spectrophotometer. When the same test is effected with a plasma prepared from the blood of an animal which has been administered 100 mg/kg of a derivative having an inhibiting effect on blood plate aggregation, there is no aggregation of the blood plates and the serum remains cloudy. The turbidimetric assay effected with a spectrophotometer provides a measure of the inhibiting activity on blood plate aggregation of the test derivatives.

| Structure (SMILES) | LD50 at 24 h (in vivo) [mg/kg] | Percent decrease (of the edema reaction) After 2 hours [1] [%] | Percent decrease (of the edema reaction) After 3 hours [1] [%] | Percent anti-inflammatory activity after 1 hour [2] [%] | Percent anti-inflammatory activity after 2 hours [2] [%] | Percent anti-inflammatory activity after 5 hours [2] [%] | inhibition at 100 mg/kg (blood plate aggregation) [%] |
| --- | --- | --- | --- | --- | --- | --- | --- |
| O=[N+]([O-])c1ccc(CN2Cc3ccsc3C(O)C2)cc1 (centres unmarked) [Derivative 1, 7-Hydroxy-5-p.nitrobenzyl-4,5,6,7-tetrahydro-thieno[3,2-c]-pyridine] | 90 |  |  |  |  |  |  |
| O=C(CN1CCCC1)N1Cc2sccc2C(O)C1 (centres unmarked) [Derivative 2, 4-Hydroxy-6-pyrrolidinoacetyl-4,5,6,7-tetrahydro-thieno[2,3-c]-pyridine] | 225 | 38 | 44 | 35 | 48 | 55 |  |
| Cc1ccc(S(=O)(=O)N2Cc3sccc3C(O)C2)cc1 (centres unmarked) [Derivative 4, 4-Hydroxy-6-p.toluenesulfonyl-4,5,6,7-tetrahydro-thieno[2,3-c]-pyridine] |  |  |  |  |  |  | 92 |
| O=C(Nc1ccccc1)N1Cc2sccc2C(O)C1 (centres unmarked) [Derivative 5, 4-Hydroxy-6-N-phenylcarbamoyl-4,5,6,7-tetrahydro-thieno[2,3-c]-pyridine] |  | 33 | 43 | 41 | 50 | 55 | 89 |
| CC(=O)CCN1Cc2ccsc2C(O)C1 (centres unmarked) [Derivative 7, 7-Hydroxy-5-(3-oxo-butyl)-4,5,6,7-tetrahydro-thieno[3,2-c]-pyridine] | 260 | 41 | 52 | 42 | 56 | 60 |  |
| CC(=O)OC1CN(Cc2ccccc2Cl)Cc2ccsc21 (centres unmarked) [Derivative 8, 7-Acetoxy-5-o-chlorobenzyl-4,5,6,7-tetrahydro-thieno[3,2-c]-pyridine] | 200 |  |  |  |  |  |  |
| CCCNC(=O)OC1CN(C)Cc2sccc21 (centres unmarked) [Derivative 9, 6-Methyl-4-N-propylcarbamoyloxy-4,5,6,7-tetrahydro-thieno-[2,3-c]-pyridine] | 220 |  |  |  |  |  | 86 |
| CN1Cc2sccc2C(O)C1 (centres unmarked) [Derivative 10] | 340 |  |  |  |  |  |  |
| CC1c2sccc2C(O)CN1C (centres unmarked) [Derivative 11] | 220 |  |  |  |  |  |  |
| CC(=O)OC1CN(C)Cc2sccc21 (centres unmarked) [Derivative 12] | 260 | 46 | 59 | 37 | 50 | 58 |  |
| CNC(=O)OC1CN(C)Cc2sccc21 (centres unmarked) [Derivative 14] | 280 |  |  |  |  |  |  |
| CC(=O)CCN1Cc2sccc2C(O)C1 (centres unmarked) [Derivative 16] | 250 |  |  |  |  |  |  |
| CC(=O)OC1CN(Cc2ccccc2Cl)Cc2sccc21 (centres unmarked) [Derivative 18] |  | 42 | 58 | 34 | 44 | 57 | 74 |
| OC1CN(Cc2ccc(Cl)cc2)Cc2sccc21 (centres unmarked) [Derivative 20] | 110 |  |  |  |  |  |  |
| COc1ccc(CN2Cc3sccc3C(OC(C)=O)C2)cc1 (centres unmarked) [Derivative 21] | 245 |  |  |  |  |  |  |
| O=[N+]([O-])c1ccccc1CN1Cc2sccc2C(O)C1 (centres unmarked) [Derivative 22] |  |  |  |  |  |  | 93 |
| O=[N+]([O-])c1ccc(CN2Cc3sccc3C(O)C2)cc1 (centres unmarked) [Derivative 24] | 150 |  |  |  |  |  |  |
| CC(=O)OC1CN(C(=O)C(Cl)Cl)Cc2sccc21 (centres unmarked) [Derivative 25] |  |  |  |  |  |  | 84 |
| COc1cc(C(=O)N2Cc3sccc3C(O)C2)cc(OC)c1OC (centres unmarked) [Derivative 26] |  | 51 | 63 | 36 | 49 | 54 |  |
| CN1Cc2ccsc2C(O)C1 (centres unmarked) [Derivative 29] | 350 | 49 | 59 | 45 | 55 | 61 | 88 |
